Laboratory results: patent US20040167229A1, “Method of lowering CRP and reducing systemic inflammation” (priority 2002, published 2004)
Marks after values point to notes of the source that are not given here.

Key:
[1] = test system: proinflammatory cytokine induced CRP production by human hepatoma cell line PLC/PRF/5; test: CRP production by cytokine stimulated human hepatoma PLC/PRF/5 cells, CRP ELISA of cell media (Example 16); format: cell-based; details: 10 ng/ml IL-6, 1 ng/ml IL-1, 1 μM dexamethasone, 24 hours, FIG. 1
Source text: As noted above dialkyl ethers are useful for inhibiting proinflammatory cytokine induced CRP production. Studies have shown that the acute phase response can be recapitulated in cultured human hepatoma cells stimulated with the pro-inflammatory cytokines IL-6 and IL-1 in the presence of the corticosteroid Dexamethasone (Lozanski G, Berthier F, and Kushner I, 1997; Biochem J. 328:271-275). Using a similar hepatoma cell system we evaluated the effect 6,6′-oxybis(2,2-dimethylhexanoic acid) on CRP production by cytokine stimulated human hepatoma PLC/PRF/5 cells. […]
CRP protein concentrations were determined using a CRP ELISA Kit (Alpha Diagnostic International, Inc. San Antonio, Tex. USA (Cat. No.1000)). […] At the end of this incubation a 50 μl stop solution (as described by the manufacturer of the CRP kit) was added to each well and the plate was used to measure absorbance at 450 nm in a Spectra Max Plus, Molecular Devices spectrophotometer.
A CRP standard curve (in ng/ml) was generated by determining 450 nm absorbance values for different amounts of a standard CRP solution, provided by the vendor of the CRP kit, and correcting these values by subtracting the 450 nm absorbance of zero CRP control samples. CRP determinations in experimental samples was done as follows: 10 μl cell media samples in duplicates or triplicates were used to determine 450 nm absorbance. […]

[2] = test system: CRP; test: Randomized, double-blind, placebo-controlled dose-response study in patients with HDL-C <35 mg/dL, 12 weeks; CRP by high sensitivity immunonephelometry (Example 15); format: in vivo, human; details: for levels of CRP reduced by: 900 mg/day; for % change in CRP levels from base line: median percent change
Procedure: As noted above, the dialkyl ethers of this invention are useful for lowering plasma CRP levels. The ability of a dialkylether to lower plasma CRP levels was determined using in vivo studies routinely utilized by those skilled in the art.
A randomized, double-blind, placebo-controlled, parallel group, dose-response, multicenter study was conducted at 11 centers in the United States and one center in Canada. Eligible patients with HDL-C level<35 mg/dL (0.9 mmol/L) were selected following a 6-week, single-blind placebo, dietary lead in period conducted according to National Cholesterol Education Program (NCEP) Step 1 Diet. The NCEP Step 1 Diet guidelines are as follows:
Eligible patients with HDL-C level<35 mg/dL (0.9 mmol/L) were stratified according to whether mean serum TG level measured at both 2 and 4 weeks prior to randomization was <200 mg/dL (2.3 mmol/L) or ≧200 mg/dL (2.3 mmol/L). Within each TG stratum, patients were randomized to receive either 150, 300, 600, or 900 mg of 6,6′-oxybis(2,2-dimethylhexanoic acid) calcium saltor placebo daily (QD) for 12 weeks.
Eligible patients were women of non-childbearing potential (naturally postmenopausal or surgically sterilized) or men 18 to 80 years of age with a baseline HDL-C<35 mg/dL. Patients were excluded if they had creatine phosphokinase (CPK)>3 times the upper limit of normal (ULN), a body mass index>35 kg/m^2, uncontrolled hypertension defined as sitting diastolic blood pressure>95 mm Hg whether taking or not taking an acceptable antihypertensive medication, uncontrolled diabetes mellitus (HbA1C>10%), hepatic dysfunction including asparate aminotransferase (AST) or alanine aminotransferase (ALT)>2 times ULN, renal dysfunction as defined by blood urea nitrogen (BUN) or creatinine>2 times ULN or uncontrolled hypothyroidism (thyroid stimulating hormone>1.5 times ULN). Also excluded were those with a history of gall bladder disease or pancreatitis, a history of consuming>14 alcoholic drinks per week, or those with a known hypersensitivity to lipid-altering drugs. Patients who had myocardial infarction, severe or unstable angina pectoris, coronary artery bypass graft or any other cardiovascular event requiring hospitalization within the last 3 months were also excluded from the study. Patients were not permitted any other lipid-altering drugs during the course of the study and if on prestudy lipid-altering drug therapy, were required to undergo an additional 4-week washout period. Use of isotretinoin, insulin, warfarin, immunosuppressive agents and intermittent systemic steroids were also prohibited.
All blood samples were collected following a 12-hour fast and analyzed using methods well known to one of skill in the art; these methods are described briefly as follows. Serum concentrations of cholesterol and triglycerides were measured using an enzymatic, colorimetric assay on a Hitachi 747 analyzer. The HDL-C samples were obtained from the supernatant after precipitation of the non-HDL lipoproteins using heparin and manganese chloride. Concentrations of CRP were measured using immunonephelometry on a nephelometer (Dade Behring, Marburg, Germany). The high sensitivity assay was used to measure CRP (Dade Behring, Marburg, Germany).
Within each TG stratum, an ANCOVA model with the effects of baseline CRP value, treatment, and site was used to analyze the percent change from baseline at the last visit for CRP by producing least squares (LS) means and p-values. p-values were unadjusted for multiplicity.
The Shapiro-Wilk Test for Normality and visual analysis of the residuals was used to determine if the assumption of normality was reasonable. Since CRP levels in all patients were not normally distributed, median percent changes are presented and Conover's nonparametric ANCOVA was used to analyze the ranked data.

[3] = test system: CRP; test: Randomized, double-blind, placebo-controlled dose-response study in hypercholesterolemic patients, 8-week treatment; CRP by high sensitivity assay (Example 17); format: in vivo, human; details: mean of 6 and 8 week CRP level, placebo 9.4% increase
Procedure: A randomized, double-blind, placebo-controlled, parallel group, dose-response, multicenter study was conducted in hypercholesterolemic patients. The study had three periods: (1) a lipid medication wash-out visit if needed; (2) a qualifying period; and (3) an 8-week double-blind treatment period. The data discussed below is from a portion of a larger study.
Patients with significant cardiac, renal (creatinine>2.0 mg/dL) or liver (alanine aminotransferase [ALT] or aspartate aminotransferase [AST]>1.5× upper limit of normal [ULN]) disease, unexplained CPK levels>3×ULN, body mass index [BMI]>38 kg/m^2, triglycerides [TG]>400 mg/dL, or age>70 years are excluded as are women who are of childbearing potential, pregnant or lactating. A subset of eligible patients was randomized to receive placebo, 300, 600 or 900 mg/day of 6,6′-oxybis(2,2-dimethylhexanoic acid) calcium salt. Each of these groups had 13 to 15 patients.
Blood samples were collected at week −2, week −1, randomization and every two weeks thereafter. CRP levels were determined using a high sensitivity assay as in example 15. The mean of the 6 and the 8 week CRP level was calculated for each patient. Values>10 were not included in the analysis as these values are indicative of acute inflammation. For each dosage group the median of the mean values was determined. These median numbers were compared with median CRP values at baseline. Percent change from baseline in CRP levels due to the administration of 300, 600, 900 mg/day of 6,6′-oxybis(2,2-dimethylhexanoic acid) calcium salt or placebo is shown in FIG. 2. At the 300, 600 and 900 mg doses the levels of CRP were reduced by 26% (p=0.16 vs placebo), 42% (p<0.01 vs placebo) and 35% (p<0.01 vs placebo) respectively, compared to a 9.4% increase in the placebo group.

Row | Compound | doses that effectively inhibited proinflammatory cytokine induced CRP production [1] [µM] | reduction in the CRP level ([2]; 600 mg/day, <200 mg/dL TG stratum, not statistically significant) [%] | CRP level reduced by ([2]; 600 mg/day, ≧200 mg/dL TG stratum, p<0.05 vs Placebo) [%] | levels of CRP reduced by ([2]; <200 mg/dL TG stratum, p<0.05 vs Placebo) [%] | levels of CRP reduced by ([2]; ≧200 mg/dL TG stratum, p<0.001 vs placebo) [%] | % change in CRP levels from base line ([2]; patients TG < 200 mg/dL, 150 mg daily (QD) for 12 weeks) [%] | % change in CRP levels from base line ([2]; patients TG < 200 mg/dL, 300 mg daily (QD) for 12 weeks) [%] | % change in CRP levels from base line ([2]; patients TG < 200 mg/dL, 600 mg daily (QD) for 12 weeks, not statistically significant) [%] | % change in CRP levels from base line ([2]; patients TG < 200 mg/dL, 900 mg daily (QD) for 12 weeks, p < 0.05 versus placebo) | % change in CRP levels from base line ([2]; patients TG ≧ 200 mg/dL, 150 mg daily (QD) for 12 weeks) [%] | % change in CRP levels from base line ([2]; patients TG ≧ 200 mg/dL, 300 mg daily (QD) for 12 weeks) [%] | % change in CRP levels from base line ([2]; patients TG ≧ 200 mg/dL, 600 mg daily (QD) for 12 weeks, p < 0.05 versus placebo) | % change in CRP levels from base line ([2]; patients TG ≧ 200 mg/dL, 900 mg daily (QD) for 12 weeks, p < 0.001 versus placebo) | levels of CRP reduced by (median percent change from baseline) ([3]; 300 mg/day, p=0.16 vs placebo) [%] | levels of CRP reduced by (median percent change from baseline) ([3]; 600 mg/day, p<0.01 vs placebo) [%] | levels of CRP reduced by (median percent change from baseline) ([3]; 900 mg/day, p<0.01 vs placebo) [%]
1 | CC(C)(CCCCOCCCCC(C)(C)C(=O)O)C(=O)O [6,6′-oxybis(2,2-dimethylhexanoic acid), 6,6′-Oxybis-(2,2-dimethylhexanoic acid)] | ≥ 500 | – | – | – | – | – | – | – | – | – | – | – | – | – | – | –
2 | CC(C)(CCCCOCCCCC(C)(C)C(=O)[O-])C(=O)[O-].[Ca+2] [6,6′-oxybis(2,2-dimethylhexanoic acid), calcium salt] | – | 58 | 29 | 54 | 57 | −14.3 | −16.0 | −58.3 | −53.8* % | −22.2 | −16.2 | −28.6* % | −57.1** % | 26 | 42 | 35
